Experimental data from US20050107475A1, “Methods of using farnesoid x receptor (frx) agonists” (priority 2002, published 2005).

Assays:
[1] = test system: human Fibroblast Growth Factor 19 (hFGF19); assay: Differential expression of FGF19 in human hepatocytes treated with FXR agonists (transcript profiling); type: cell-based; conditions: vs DMSO control
Protocol: The present study utilized differential gene expression analysis as performed by CuraGen Corporation (New Haven, Conn.) using transcript profiling technology. […] In brief, RNA is extracted from samples and cDNA synthesis is carried out. The cDNAs are then digested with multiple pairs of different restriction enzymes (standard set of 96 different pairs of restriction enzymes with 6 base-pair recognition sites (subsequence pairs)), and the digested products are ligated to complementary adapters containing standardized PCR priming sequences. Multiple PCR cycles are carried out using one biotinylated adapter-specific primer and one fluorescently labeled adapter-specific primer. Following PCR amplification, the biotin-labeled DNA is purified on immobilized streptavidin. Denatured single stranded cDNA fragments are then sized using capillary electrophoresis, and the fluorescently labeled fragments are detected by laser excitation. Since the biotin label is needed for purification and the fluorescent label is needed for detection, all analyzed fragments result from restriction digestion with both enzymes.
Differentially expressed peaks are identified by comparing the composite traces of the experimental samples vs. the control samples using bioinformatics algorithms. […]

[2] = test system: primary rat adipocytes; conditions: added to cultures of primary rat adipocytes; cited from earlier work
[3] = test system: primary rat adipocytes; conditions: added to cultures of primary rat adipocytes; cited from earlier work; remark: listed apart in the source
[4] = test system: FvB mice; conditions: 1 mg/kg/day, intravenously by osmotically driven implanted pump, vs carrier alone; cited from earlier work

| Compound | Increase in expression of hFGF19 compared to control cells [1] [fold] | release of leptin from the cells [2] | uptake of glucose [3] | food intake [4] | oxygen consumption [4] |
| --- | --- | --- | --- | --- | --- |
| CC(C)c1onc(-c2c(Cl)cccc2Cl)c1COc1ccc(/C=C/c2cccc(C(=O)O)c2)c(Cl)c1 [GW4064X] | 36.4 | – | – | – | – |
| recombinant human FGF-19: recombinant human fibroblast growth factor 19 protein | – | increase the release of leptin | decrease the uptake of glucose | increased food intake | increased oxygen consumption |
